Source: paper PMC9014415, “Repositioning of a Diaminothiazole Series Confirmed to Target the Cyclin-Dependent Kinase CRK12 for Use in the Treatment of African Animal Trypanosomiasis” (Journal of Medicinal Chemistry, 2022)

Tests used:
T. congolense KONT 2/133 = assay: Cattle efficacy for compound 1, SC (Clinvet); format: in vivo, Trypanosoma congolense; details: for Animals negative for parasites / Animals positive for parasites: 5 mg/kg SC twice 12 h apart
Text: However, following the cessation of treatment, parasitaemia quickly re-emerged to such an extent that after 4 days, all calves were positive. It should be noted that in this study, calves were infected with a highly virulent T. congolense isolate known to be resistant to established anti-trypanosomal agents diminazene and isometamidium. Testing compounds in this model represents a rigorous test of efficacy; thus, the observed reduction in parasite numbers in calves dosed with compound 1 was very encouraging. […]
3.3 Cattle efficacy for compound 1 (Clinvet)
(§1) In each of the cattle efficacy studies (3.3, 3.4 and 3.5), efficacy was assessed primarily on absence of recrudescence of parasitaemia for 100 days after treatment administration together with improvements in Packed Cell Volume, body weight and clinical signs of infected compared with uninfected animals. Assessment of parasitaemia was based on phase contrast buffy coat examinations and confirmation by PCR at 100 d.
Friesian-Holstein calves, weaned for at least 2 months and with a minimum age of 4 months, housed in a fly-proof building, were infected with Trypanosoma conglense (savannah) KONT 2/133, at a dose of 110,000 parasites (study day 0) via IV infusion. The parasites were obtained from a donor calf. This isolate is resistant to diminazene (20 mg/kg) and isometamidium (1 mg/kg) in cattle, and diminazene (7 mg/kg) and isometamidium (>1 mg/kg) in mice. Calves were parasitaemic by study day 6. Calves (n = 5) were treated with compound 1 (5 mg/kg, SC, twice 12 h apart) on study […]
day at 25 mg/ml in NMP/ 2-pyrrolidinone/ PEG400 water 10/40/30/20. Control groups were comprised of un-infected calves, infected but un-treated calves (n = 6) and calves treated with diminazene (n = 3) or isometamidium (n = 3). The calves were randomised to treatments. Calves were monitored daily for parasitaemia and packed cell volume (PCV) via blood sampling and through […]
One day after treatment, 80% of the animals in the treatment group were negative for parasites.
After 3 d, 100% of the animals in the treatment groups were negative for parasites. After 5 d, 40% of the animals were positive for parasites. […]

T. vivax (STIB719) = assay: Cattle efficacy for compound 2, intravenous infusion (Clinvet), T. vivax; format: in vivo, Trypanosoma vivax; details: Friesian-Holstein cattle infected with T. vivax; n = 4; at 100 days
Protocol: Unfortunately, an injection site tolerability issue arose during the pharmacokinetic study in cattle that was not evident in rats. […] To circumvent these issues, compound 2 was assessed in an in vivo proof of concept efficacy study in Friesian-Holstein cattle using an IV infusion regimen. The study was conducted in four animals infected with T. congolense (KONT2/133) and four animals infected with T. vivax (STIB719). Three additional animals infected with each strain formed the vehicle control groups and were dosed IV once daily with saline. Pharmacokinetic modeling was used to define a dosing regimen that mimics the blood concentration–time profile that delivered cure in mice (10 mg/kg SC once daily for 2 days, with a Ctrough of >20 ng/mL (>38 nM)). A continuous infusion over 36 h and two loading doses 24 h apart were required. […]
Response to treatment was determined by monitoring parasitaemia twice a week until day 21. […]
as §1, with “Assessment of parasitaemia was based on phase contrast buffy coat examinations and confirmation by PCR at 100 d.” left out

[1] = Comparative cattle PK, IM compared to SC (NorthWest Biopharm); format: in vivo; details: Aberdeen Angus crossbreed and Limousin crossbreed, bovine, blood, 5 mg/kg free base
Protocol: Kolliphor EL, N-methyl pyrrolidone, 2-pyrrolidone and 11% water suitable for injection) […]
Comparative cattle PK (Northwestern Biopharm)
The pharmacokinetics for compound 2 when dosed as free base in the best tolerated formulation: […]
Kolliphor EL, N-methyl pyrrolidone, 2-pyrrolidone and 11% water at 5 mg/kg was assessed, IM
compared to SC. Bioanalysis of blood
samples was conducted at the University of Dundee. […]

[2] = 5 mg/kg SC given twice at 12 h intervals

## CC(C)CS(=O)(=O)N[C@H]1CC[C@H](Nc2nc(N)c(C(=O)c3c(F)cccc3F)s2)CC1 [Compound 1, N-((trans)-4-((4-Amino-5-(2,6-difluorobenzoyl)thiazol-2-yl)amino)cyclohexyl)-2-methylpropane-1-sulfonamide]
T. congolense KONT 2/133; [2]
  Parasitaemia in calves: suppressed below the level of detection
  Time after cessation of treatment until all calves were positive: 4 days
T. congolense KONT 2/133; after 3 d
  Animals negative for parasites: 100%
T. congolense KONT 2/133; after 5 d
  Animals positive for parasites: 40%
T. congolense KONT 2/133; after 6 d
  Animals positive for parasites: 80%
T. congolense KONT 2/133; after 8 days
  Animals positive for parasites: 100%
T. congolense KONT 2/133; one day after treatment
  Animals negative for parasites: 80%

## CC(C)CS(=O)(=O)N[C@H]1CC[C@H](Nc2nc(N)c(C(=O)c3c(F)cc(CN(C)C)cc3F)s2)CC1 [Compound 2, N-(trans)-[4-[[4-Amino-5-[4-(dimethylaminomethyl)-2,6-difluoro-benzoyl]thiazol-2-yl]amino]cyclohexyl]-2-methyl-propane-1-sulfonamide]
T. vivax (STIB719)
  Efficacy in cattle, IV bolus and infusion: cured
[1]; IM
  AUC: 3170 ng·h/mL
  Cmax: 360 ng/mL
  Tmax: 0.5 h
[1]; SC
  AUC: 967 ng·h/mL
  Cmax: 86 ng/mL
  Tmax: 3 h
